Reference: US20240279221A1, “HETEROCYCLIC COMPOUNDS AND METHODS OF USE” (Schrödinger, Inc., priority 2021, published 2024)

Tests used:
[1] = target: human SOS1 (Homo sapiens (Human), UniProt Q07889); assay: Surface Plasmon Resonance (SPR) SOS1 Binding Assay; settings: biotinylated SOS1 (res. 564-1049), 25° C., kinetic or steady state fit, read-out: KD for hSOS1
Method: Binding to SOS1 was measured using a SPR assay with purified recombinant human SOS1 substrate (res. 564-1049 with N-terminal Avi tag; purified and biotinylated based on Hillig, et al., Proc Natl Acad Sci USA (2019); 116(7):2551-2560). SPR measurements were performed on a Biacore 8K SPR instrument (GE Healthcare, Sweden). Assays were performed at 25° C. using Series S SA sensor chips pre-coated with streptavidin (GE Healthcare, Cat. BR100531). Biotinylated SOS1 diluted in sample buffer (20 mM Tris HCl, 150 mM NaCl, 1 mM DTT, 0.05% TWEEN 20, 1 mM MgCl2, pH 8.0) was captured to one flow cell of the chip to about 3,000 resonance units (RU) using sample buffer supplemented with 5% DMSO as a running buffer. Serial dilutions of the assayed compounds in the running buffer at 100, 50 or 0.5 μM were injected for 60 s at a flow rate of 30 μL/min and association phases were recorded. Dissociation of the samples was monitored for 600 s. Data processing was performed using Biacore Insight Software (Biacore, GE Healthcare). Sensorgrams recorded on a SA flow cell without captured protein were subtracted from sensorgrams recorded on the SOS1 surface. Blank injections of running buffer were used for double referencing and solvent correction was applied to all sample sensorgrams to correct for buffer mismatches. KDs were estimated using a kinetic or steady state, where applicable, fitting model describing a reversible equilibrium with 1:1 binding between SOS1 and the compound.

[2] = target: SOS1:KRAS (G12C) interaction (Homo sapiens (Human), UniProt Q07889); assay: SOS1-KRas(G12C) FRET Assay; type: binding; settings: 0.5 nM His10-SOS1 (res. 564-1049), 2.5 nM GST-KRAS (res. 1-169, G12C); read-out: SOS-KRas(G12C) FRET IC50
Sequence of SOS1:KRAS (G12C) interaction (Q07889 564-1049, stated change not applied): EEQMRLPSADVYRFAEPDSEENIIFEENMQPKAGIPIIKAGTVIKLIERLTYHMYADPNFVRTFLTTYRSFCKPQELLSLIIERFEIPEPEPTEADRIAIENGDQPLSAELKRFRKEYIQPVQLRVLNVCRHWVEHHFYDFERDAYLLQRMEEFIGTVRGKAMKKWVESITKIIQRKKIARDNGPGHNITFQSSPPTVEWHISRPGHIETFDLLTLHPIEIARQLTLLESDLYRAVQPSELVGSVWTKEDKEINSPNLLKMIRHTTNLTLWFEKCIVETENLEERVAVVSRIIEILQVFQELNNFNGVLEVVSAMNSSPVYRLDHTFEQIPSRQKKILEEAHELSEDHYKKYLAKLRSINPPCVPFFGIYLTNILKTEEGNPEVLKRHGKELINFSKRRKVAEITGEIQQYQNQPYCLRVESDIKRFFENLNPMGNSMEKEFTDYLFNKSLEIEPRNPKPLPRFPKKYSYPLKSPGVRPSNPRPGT
Outline: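 Compounds were pre-incubated 15 min at 25° C with SOS1 (His10, res. 564-1049; 0.5 nM final) and anti-6His-XL665, then GST-KRAS G12C (res. 1-169; 2.5 nM final) with anti-GST-Eu(K) was added for 2 h at RT. The buffer was PBS, 0.1% BSA, 5 mM MgCl2, 100 mM KF, 5 mM DTT with 0.5% DMSO. The 665/615 nm signal was normalised to DMSO and no-SOS1 controls, and IC50 and Hill coefficient were fitted by non-linear regression.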

Sequence of human SOS1 (Q07889 564-1049): as the sequence (Q07889 564-1049, stated change not applied) above

Structure (SMILES)	Kd [1]	IC50 [2]
Cc1c([C@@H](C)Nc2nn(C)c(=O)c3c(OC(C)C)c(=O)n(C4CC4)cc23)cccc1C(F)(F)F [Example 81, (R)-6-cyclopropyl-8-isopropoxy-2-methyl-4-((1-(2-methyl-3-(trifluoromethyl)phenyl)ethyl)amino)-2,6-dihydropyrido[3,4-d]pyridazine-1,7-dione]	134 nM	376 nM
Cc1c([C@@H](C)Nc2nn(C)c(=O)c3cc(=O)n(C4CCNCC4)cc23)cccc1C(F)(F)F [Example 22, (R)-2-methyl-4-((1-(2-methyl-3-(trifluoromethyl)phenyl)ethyl)amino)-6-(piperidin-4-yl)-2,6-dihydropyrido[3,4-d]pyridazine-1,7-dione]	74 nM	350 nM
C[C@H](Nc1nn(C)c(=O)c2cc(=O)n(C3CC3)cc12)c1cccc(C(F)(F)C(=O)N(C)C)c1F [Example 105, (S)-2-(3-(1-((6-cyclopropyl-2-methyl-1,7-dioxo-1,2,6,7-tetrahydropyrido[3,4-d]pyridazin-4-yl)amino)ethyl)-2-fluorophenyl)-2,2-difluoro-N,N-dimethylacetamide]	–	> 10000 nM
C[C@@H](Nc1nn(C)c(=O)c2cc(=O)n([C@@]3(C(F)(F)F)CCNC3)cc12)c1cccc(C(F)F)c1F (single isomer, unassigned) [Example 96]	–	29.2 nM
COCC(F)(F)c1cccc([C@@H](C)Nc2nn(C)c(=O)c3cc(=O)n(C4(C(F)F)CC4)cc23)c1F [Example 161, 4-[[(1R)-1-[3-(1,1-difluoro-2-methoxy-ethyl)-2-fluoro-phenyl]ethyl]amino]-6-[1-(difluoromethyl)cyclopropyl]-2-methyl-pyrido[3,4-d]pyridazine-1,7-dione]	–	24.9 nM
CC(=O)N1CC2(n3cc4c(N[C@H](C)c5cccc(C(F)F)c5F)nn(C)c(=O)c4cc3=O)CC1C2 [Example 146, (R)-6-(2-acetyl-2-azabicyclo[2.1.1]hexan-4-yl)-4-((1-(3-(difluoromethyl)-2-fluorophenyl)ethyl)amino)-2-methyl-2,6-dihydropyrido[3,4-d]pyridazine-1,7-dione]	–	70.6 nM
C[C@@H](Nc1nn(C)c(=O)c2cc(=O)n([C@]34COC[C@H]3C4)cc12)c1cccc(C(F)F)c1F [Example 148, 4-[[(1R)-1-[3-(difluoromethyl)-2-fluoro-phenyl]ethyl]amino]-2-methyl-6-[(1S,5S)-3-oxabicyclo[3.1.0]hexan-1-yl]pyrido[3,4-d]pyridazine-1,7-dione]	–	40.5 nM
C[C@@H](Nc1nn(C)c(=O)c2cc(=O)n([C@@]34C[C@@H]3CN(C(=O)C3CC3)C4)cc12)c1cccc(C(F)F)c1F (single isomer, unassigned) [Example 141]	–	25 nM
C[C@@H](Nc1nn(C)c(=O)c2c(OCC3COC3)c(=O)n(C3(C(F)F)CC3)cc12)c1cccc(C(F)F)c1F [Example 90, (R)-4-((1-(3-(difluoromethyl)-2-fluorophenyl)ethyl)amino)-6-(1-(difluoromethyl)cyclopropyl)-2-methyl-8-(oxetan-3-ylmethoxy)-2,6-dihydropyrido[3,4-d]pyridazine-1,7-dione]	–	59.7 nM
CNC(=O)C(F)(F)c1cccc([C@@H](C)Nc2nn(C)c(=O)c3cc(=O)n(C4CC4)cc23)c1F [Example 107, (R)-2-(3-(1-((6-cyclopropyl-2-methyl-1,7-dioxo-1,2,6,7-tetrahydropyrido[3,4-d]pyridazin-4-yl)amino)ethyl)-2-fluorophenyl)-2,2-difluoro-N-methylacetamide]	–	271 nM
CC(=O)N1C[C@@H]2C[C@]2(n2cc3c(N[C@H](C)c4cccc(C(F)F)c4F)nn(C)c(=O)c3cc2=O)C1 (single isomer, unassigned) [Example 140]	–	31.3 nM
C[C@@H](Nc1nn(C)c(=O)c2cc(=O)n(C3CC3)cc12)c1cccc(C(F)(F)C(=O)N(C)C)c1F [Example 106, (R)-2-(3-(1-((6-cyclopropyl-2-methyl-1,7-dioxo-1,2,6,7-tetrahydropyrido[3,4-d]pyridazin-4-yl)amino)ethyl)-2-fluorophenyl)-2,2-difluoro-N,N-dimethylacetamide]	–	366 nM
C[C@@H](Nc1nn(C)c(=O)c2cc(=O)n([C@H]3C[C@@H]3C(F)(F)F)cc12)c1cccc(C(F)F)c1F (single isomer, unassigned) [Example 137]	–	91.2 nM
C[C@H](Nc1nn(C)c(=O)c2cc(=O)n(C3CC3)cc12)c1cccc(C(F)(F)CO)c1F [Example 103, (S)-6-cyclopropyl-4-((1-(3-(1,1-difluoro-2-hydroxyethyl)-2-fluorophenyl)ethyl)amino)-2-methyl-2,6-dihydropyrido[3,4-d]pyridazine-1,7-dione]	–	7800 nM

Further compounds by falling IC50 [2], results first:

Kd [1]	IC50 [2]	Structure (SMILES)
441 nM	1040 nM	COc1c(=O)n([C@H]2CCOC[C@H]2F)cc2c(N[C@H](C)c3cccc(C(F)F)c3F)nn(C)c(=O)c12 (single isomer, unassigned) [Example 59]
–	394 nM	C[C@@H](Nc1nn(C)c(=O)c2cc(=O)n([C@]3(C(F)(F)F)CCNC3)cc12)c1cccc(C(F)F)c1F (single isomer, unassigned) [Example 95]
303 nM	302 nM	Cc1c([C@@H](C)Nc2nn(C)c(=O)c3c(N(C)C)c(=O)n(C4CC4)cc23)cccc1C(F)(F)F [Example 80, (R)-6-cyclopropyl-8-(dimethylamino)-2-methyl-4-((1-(2-methyl-3-(trifluoromethyl)phenyl)ethyl)amino)-2,6-dihydropyrido[3,4-d]pyridazine-1,7-dione]
124 nM	300 nM	Cc1c([C@@H](C)Nc2nn(CCN3CC(C)(F)C3)c(=O)c3cc(=O)n(C4CC4)cc23)cccc1C(F)(F)F [Example 79, (R)-6-cyclopropyl-2-(2-(3-fluoro-3-methylazetidin-1-yl)ethyl)-4-((1-(2-methyl-3-(trifluoromethyl)phenyl)ethyl)amino)-2,6-dihydropyrido[3,4-d]pyridazine-1,7-dione]
84 nM	235 nM	Cc1c([C@@H](C)Nc2nn(C)c(=O)c3cc(=O)n(C45CC(C4)C5)cc23)cccc1C(F)(F)F [Example 16, (R)-6-(bicyclo[1.1.1]pentan-1-yl)-2-methyl-4-((1-(2-methyl-3-(trifluoromethyl)phenyl)ethyl)amino)-2,6-dihydropyrido[3,4-d]pyridazine-1,7-dione]
43 nM	129 nM	COc1c(=O)n([C@H]2CCOC[C@@H]2F)cc2c(N[C@H](C)c3cccc(C(F)F)c3F)nn(C)c(=O)c12 (single isomer, unassigned) [Example 60]
–	125 nM	C[C@@H](Nc1nn(C)c(=O)c2cc(=O)n([C@H]3CCC(F)(F)C3)cc12)c1cccc(C(F)F)c1F (single isomer, unassigned) [Example 121]
–	90 nM	Cc1c([C@@H](C)Nc2nn(C)c(=O)c3cc(=O)n(C45COC(C)(C4)C5)cc23)cccc1C(F)(F)F [Example 127, (R)-2-methyl-4-((1-(2-methyl-3-(trifluoromethyl)phenyl)ethyl)amino)-6-(1-methyl-2-oxabicyclo[2.1.1]hexan-4-yl)-2,6-dihydropyrido[3,4-d]pyridazine-1,7-dione]
16 nM	53.8 nM	C[C@@H](Nc1nn(C)c(=O)c2cc(=O)n(C3CCOCC3)cc12)c1cccc(C(F)F)c1F [Example 18, (R)-4-((1-(3-(difluoromethyl)-2-fluorophenyl)ethyl)amino)-2-methyl-6-(tetrahydro-2H-pyran-4-yl)-2,6-dihydropyrido[3,4-d]pyridazine-1,7-dione]
